Reference: ChEMBL document CHEMBL5512611, “Discovery of matrix metalloproteinase inhibitors as anti-skin photoaging agents” (Eur J Med Chem, 2024)
One block for each compound: values may come before it.

What was measured:
[1] = molecular target: T1, 72 kDa type IV collagenase (Homo sapiens, UniProt P08253); assay: Inhibition of recombinant MMP-2 (unknown origin)
[2] = molecular target: Stromelysin-2 (Homo sapiens, UniProt P09238); assay: Inhibition of MMP-10 (unknown origin) using 5-FAM-Pro-Leu-OH as substrate by fluorimetric assay
Stromelysin-2, sequence (P09238 whole entry): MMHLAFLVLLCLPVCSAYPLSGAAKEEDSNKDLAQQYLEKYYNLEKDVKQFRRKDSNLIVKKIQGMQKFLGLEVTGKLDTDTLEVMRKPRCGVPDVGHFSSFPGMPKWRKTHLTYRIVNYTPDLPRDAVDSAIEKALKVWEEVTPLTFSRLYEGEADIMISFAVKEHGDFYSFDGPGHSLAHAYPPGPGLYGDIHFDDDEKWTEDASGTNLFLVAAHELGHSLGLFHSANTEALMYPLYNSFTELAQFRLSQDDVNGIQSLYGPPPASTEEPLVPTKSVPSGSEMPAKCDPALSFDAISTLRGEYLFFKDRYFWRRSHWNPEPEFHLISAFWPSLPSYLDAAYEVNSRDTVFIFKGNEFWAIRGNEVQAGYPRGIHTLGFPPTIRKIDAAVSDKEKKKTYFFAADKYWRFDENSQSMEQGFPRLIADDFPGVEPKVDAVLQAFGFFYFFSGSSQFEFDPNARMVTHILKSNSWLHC

[3] = molecular target: T1, 72 kDa type IV collagenase; assay: Inhibition of human MMP-2 using 7-methoxycoumarin-4-yl)acetyl-Pro-Leu-Gly-Leu-(N3-(2,4-dinitrophenyl)-L-2,3-diaminopropionyl)-Ala-Arg-NH2 as substrate preincubated for 5 mins followed by enzyme addition and measured after 15 mins by fluorescence based analysis
[4] = molecular target: Matrix metalloproteinase-9 (Homo sapiens, UniProt P14780); assay: Inhibition of human MMP-9 using 7-methoxycoumarin-4-yl)acetyl-Pro-Leu-Gly-Leu-(N3-(2,4-dinitrophenyl)-L-2,3-diaminopropionyl)-Ala-Arg-NH2 as substrate preincubated for 5 mins followed by enzyme addition and measured after 15 mins by fluorescence based analysis
Matrix metalloproteinase-9, sequence (P14780 whole entry): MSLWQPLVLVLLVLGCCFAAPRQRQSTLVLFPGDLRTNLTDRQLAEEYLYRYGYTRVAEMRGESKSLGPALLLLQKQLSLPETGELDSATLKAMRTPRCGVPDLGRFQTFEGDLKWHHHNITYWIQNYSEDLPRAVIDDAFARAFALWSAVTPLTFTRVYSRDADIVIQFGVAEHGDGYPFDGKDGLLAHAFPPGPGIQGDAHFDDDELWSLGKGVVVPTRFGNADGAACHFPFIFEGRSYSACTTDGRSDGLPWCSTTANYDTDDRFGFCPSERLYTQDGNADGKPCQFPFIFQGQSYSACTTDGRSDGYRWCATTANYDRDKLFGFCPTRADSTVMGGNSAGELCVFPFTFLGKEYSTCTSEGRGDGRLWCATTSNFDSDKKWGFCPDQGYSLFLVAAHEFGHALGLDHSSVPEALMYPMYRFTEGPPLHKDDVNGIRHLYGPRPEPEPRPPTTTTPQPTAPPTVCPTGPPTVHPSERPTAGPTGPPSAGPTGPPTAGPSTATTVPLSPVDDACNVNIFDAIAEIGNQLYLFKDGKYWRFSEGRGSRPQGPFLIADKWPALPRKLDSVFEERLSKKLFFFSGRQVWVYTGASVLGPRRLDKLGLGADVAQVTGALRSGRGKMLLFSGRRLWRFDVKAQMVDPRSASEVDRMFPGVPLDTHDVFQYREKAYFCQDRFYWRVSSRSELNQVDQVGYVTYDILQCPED

[5] = molecular target: Macrophage metalloelastase (Homo sapiens, UniProt P39900); assay: Inhibition of human MMP-12 using 7-methoxycoumarin-4-yl)acetyl-Pro-Leu-Gly-Leu-(N3-(2,4-dinitrophenyl)-L-2,3-diaminopropionyl)-Ala-Arg-NH2 as substrate preincubated for 5 mins followed by enzyme addition and measured after 15 mins by fluorescence based analysis
Macrophage metalloelastase, sequence (P39900 whole entry): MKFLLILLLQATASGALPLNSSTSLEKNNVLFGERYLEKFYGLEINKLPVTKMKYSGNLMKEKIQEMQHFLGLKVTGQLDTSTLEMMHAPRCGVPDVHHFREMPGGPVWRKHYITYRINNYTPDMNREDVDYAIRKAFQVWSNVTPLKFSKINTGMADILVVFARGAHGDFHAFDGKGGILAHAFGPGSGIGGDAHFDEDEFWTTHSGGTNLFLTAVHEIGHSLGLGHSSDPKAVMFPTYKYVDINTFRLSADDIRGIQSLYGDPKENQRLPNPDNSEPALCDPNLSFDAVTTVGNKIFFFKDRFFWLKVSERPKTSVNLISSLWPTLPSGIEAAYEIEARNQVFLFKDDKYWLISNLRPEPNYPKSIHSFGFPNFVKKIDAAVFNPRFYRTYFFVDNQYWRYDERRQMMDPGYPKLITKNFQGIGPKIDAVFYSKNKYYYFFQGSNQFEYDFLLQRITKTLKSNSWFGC

[6] = Inhibition of UV light -induced MMP-1 expression in HDF-N cells at 1 ppm by ELISA relative to control; assay type: functional; details: Homo sapiens
[7] = Inhibition of UV light-induced MMP-1 expression in HDF-N cells at 5 ppm by ELISA relative to control; assay type: functional; details: Homo sapiens
[8] = Inhibition of UV light-induced MMP-1 expression in HDF-N cells at 10 ppm by ELISA relative to control; assay type: functional; details: Homo sapiens
[9] = molecular target: T2, Interstitial collagenase (Homo sapiens, UniProt P03956); assay: Inhibition of MMP-1 (unknown origin)
T2 sequence (P03956 whole entry): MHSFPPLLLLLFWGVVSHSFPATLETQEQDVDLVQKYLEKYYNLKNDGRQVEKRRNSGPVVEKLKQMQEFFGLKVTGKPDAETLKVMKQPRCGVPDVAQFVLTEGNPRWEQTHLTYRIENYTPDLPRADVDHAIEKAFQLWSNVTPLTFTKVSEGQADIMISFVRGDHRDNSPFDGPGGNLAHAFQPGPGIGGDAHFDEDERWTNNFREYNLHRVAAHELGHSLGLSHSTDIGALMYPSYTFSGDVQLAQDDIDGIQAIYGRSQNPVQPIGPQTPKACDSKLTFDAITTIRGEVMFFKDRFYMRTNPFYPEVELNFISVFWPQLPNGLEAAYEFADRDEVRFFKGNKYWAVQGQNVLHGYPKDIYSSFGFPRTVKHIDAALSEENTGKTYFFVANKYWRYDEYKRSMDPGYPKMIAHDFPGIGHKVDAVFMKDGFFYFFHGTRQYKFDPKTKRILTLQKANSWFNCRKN

[10] = Inhibition of MMP-1 mRNA expression in UVB-irradiated human Hs68 cells at 10 uM relative to control; assay type: functional; details: Hs68, light or radiation study
[11] = Inhibition of MMP-2 mRNA expression in UVB-irradiated human Hs68 cells at 10 uM relative to control; assay type: functional; details: Hs68, light or radiation study
[12] = Downregulation of UVB irradiation-induced MMP-1 expression in HDF cells at 20 uM measured after 24 hrs by Western blot analysis relative to control; assay type: functional, Homo sapiens, NHDF
[13] = Downregulation of UVB irradiation-induced MMP-3 expression in HDF cells at 20 uM measured after 24 hrs by Western blot analysis relative to control; assay type: functional, Homo sapiens, NHDF
[14] = Cytotoxicity against human CCD-986Sk cells assessed as cell viability by MTT assay relative to control; assay type: toxicity, cell-based; details: read-out: Activity
[15] = Inhibition of UVB-induced MMP-9 expression in SKH-1 hairless mouse skin at 1 nM administered topically for 1 hr followed by UVB irradiation for 15 weeks by densitometry based gelatin zymography analysis relative to control; assay type: functional; details: SKH-1, Skin of body, light or radiation study, topical, time 2521 hrs
[16] = Inhibition of UVB-induced MMP-9 expression in SKH-1 hairless mouse skin at 5 nM administered topically for 1 hr followed by UVB irradiation for 15 weeks by densitometry based gelatin zymography analysis relative to control; assay type: functional; details: SKH-1, Skin of body, light or radiation study, topical, time 2521 hrs

T1 sequence (P08253 whole entry): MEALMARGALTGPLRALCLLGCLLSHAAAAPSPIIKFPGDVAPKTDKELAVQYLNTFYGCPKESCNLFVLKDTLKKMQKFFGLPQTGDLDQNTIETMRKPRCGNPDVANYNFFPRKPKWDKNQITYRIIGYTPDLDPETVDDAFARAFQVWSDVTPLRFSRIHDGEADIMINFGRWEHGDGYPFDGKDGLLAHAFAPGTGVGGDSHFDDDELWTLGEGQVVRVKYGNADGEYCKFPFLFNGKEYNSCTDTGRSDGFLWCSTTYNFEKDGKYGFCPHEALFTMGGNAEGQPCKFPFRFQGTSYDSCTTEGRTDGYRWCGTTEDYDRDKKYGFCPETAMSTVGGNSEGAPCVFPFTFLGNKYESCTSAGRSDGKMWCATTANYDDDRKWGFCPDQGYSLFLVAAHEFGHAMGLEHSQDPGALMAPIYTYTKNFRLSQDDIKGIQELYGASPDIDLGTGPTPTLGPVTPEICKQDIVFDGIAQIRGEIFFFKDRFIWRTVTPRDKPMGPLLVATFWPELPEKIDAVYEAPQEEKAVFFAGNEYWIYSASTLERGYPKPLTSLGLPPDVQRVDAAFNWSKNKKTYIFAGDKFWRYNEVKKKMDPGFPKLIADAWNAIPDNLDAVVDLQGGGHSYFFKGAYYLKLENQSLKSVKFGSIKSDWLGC

Compound: O=C1c2cc(O)cc(O)c2CN1c1ccc(O)cc1
- inhibition at 1 µg/mL [6]: 33.9%
- inhibition at 5 µg/mL [7]: 27.6%
- inhibition at 10 µg/mL [8]: 27.5%

Compound: O=C1OC[C@H]2OC(O)[C@@H]3OC(=O)c4cc(O)c(O)c(O)c4-c4c(cc(O)c(O)c4O)C(=O)O[C@@H]3[C@@H]2OC(=O)c2cc(O)c(O)c(O)c2-c2c1cc(O)c(O)c2O (some centres not stated)
- IC50 [9]: 9750 nM

Compound: C[C@H](C[C@H](COC(=O)CCC(=O)O)NC(=O)c1ccc(Oc2ccccc2)cc1)C(=O)NO
- IC50 [3]: 1.1 nM
- IC50 [4]: 2.8 nM
- IC50 [5]: 2.6 nM

Compound: COc1cc2ccnc3c2c(c1OC)NC=C3 [AAPTAMINE]
- inhibition at 10 µM [10]: 53.6%
- inhibition at 10 µM [11]: 87.4%

Compound: Oc1ccc2c(c1)OC[C@]1(O)Cc3cc(O)c(O)cc3[C@H]21 [BRAZILIN]
- Activity [12]: 50%
- Activity [13]: 50%

Compound: O=C(O[C@@H]1Cc2c(O)cc(O)cc2O[C@@H]1c1cc(O)c(O)c(O)c1)c1cc(O)c(O)c(O)c1 [EPIGALOCATECHIN GALLATE]
- IC50 [9]: 7900 nM

Compound: COc1cc(/C=C/C(=O)O)ccc1O [FERULATE]
- viability [14]: > 80%

Compound: O=c1c(O)c(-c2cc(O)c(O)c(O)c2)oc2cc(O)cc(O)c12 [MYRICETIN]
- inhibition in vivo at 0.001 µM [15]: 55%
- inhibition in vivo at 0.005 µM [16]: 80%

More lines, now with the values ahead:

- IC50 [1]: 70 nM
Compound: COc1ccc(S(=O)(=O)N(CC(=O)NO)CC(C)C)cc1

- IC50 [2]: 24 nM
Compound: CC(=O)N1C2NC(C)=CC(=O)N2C(c2ccc(Br)cc2)N1C(C)=O (configuration not stated)

- IC50 [3]: 0.65 nM
- IC50 [4]: 0.8 nM
- IC50 [5]: 3.5 nM
Compound: C[C@H](C[C@H](CO)NC(=O)c1ccc(Oc2ccccc2)cc1)C(=O)NO

- IC50 [2]: 53 nM
Compound: COc1ccc(/C=N/Nc2nc(C)cc(=O)[nH]2)cc1

- IC50 [2]: 1630 nM
Compound: CC(=O)N1c2nc(=O)cc(C)n2C(c2ccc(Br)cc2)N1C(C)=O (configuration not stated)
